Read-outs that look alike come from different tables or passages of the source.
Legend:
[1] = Stability of LVFX in QC samples (dialysate solvents) under storage conditions; format: physicochemical; details: for Calculated concentration (mean ± SD): n=3
Method: Using artificial cerebrospinal fluid (ACSF) and Ringer's solution as solvents, the LVFX concentration required for calibration and quality control (QC) samples was obtained by appropriate step‐by‐step dilution. A calibration curve was constructed using the relationship between the analyte peak area and analyte concentration obtained in the range of 0.01–30 μg/ml. Linearity was assessed by a weighted (1/x ^2) least squares regression analysis. The accuracy and precision of the method were evaluated by QC samples of high, medium, and low concentrations. Quantification of the concentration of QC samples was conducted three times on the same day to evaluate the intra‐day precision and accuracy. The same procedure was employed for 3 consecutive days to evaluate the inter‐day precision and accuracy of this method. The relative error (RE%) and relative standard deviation (RSD%) were used to evaluate the accuracy and precision, respectively. We evaluated the stability of LVFX in dialysates under short‐term (6 h) room temperature, low temperature (4°C), and freeze–thaw conditions (three cycles).

[2] = test system: Organic anion transporters (OATs); assay: In vivo microdialysis pharmacokinetics of LVFX with OATs inhibitor probenecid; parameters: species or system rat; details: for MRT / half-life / Tmax / AUC(0-inf) / Cmax / AUC(0-t) / Kp: rat, intravenous, with Probenecid 50 mg/kg i.p., PRO group, Probenecid 50 mg/kg i.p. + LVFX 50 mg/kg, N=5; for MRT / half-life / AUC(0-inf) / Cmax / AUC(0-t): mean ± SD; for AUC(0-t): read-out: AUC0–180 (converted)
Method: On the day of surgery, rats were anesthetized using inhaled isoflurane via a facemask. The rats were placed in a stereotaxic frame (Gene&I), and the body temperature was maintained with a homoeothermic blanket set at 37°C. A midline incision was made to expose the skull. According to the Paxinos and Watson atlas, two microdialysis intracerebral guide cannulae (Eicom Co.) were implanted into the hippocampus CA1 region (Hp‐CA1 coordinates: AP −4.16 mm; ML −2.2 mm; DV −2.9 mm) and lateral ventricle (LV coordinates: AP −1.4 mm; ML +2.2 mm; DV −3.4 mm). Fixed to the skull using a screw and dental cement. After 3 days of recovery, the rats were anesthetized with isoflurane again. An intravascular probe (TP‐100‐20; 20 mm, Eicom Co.) was implanted into the jugular vein toward the right atrium. After the blood microdialysis probe was positioned within the jugular vein, the pipeline was connected to perfuse with ACD solution (citric acid 3.5 mM; sodium citrate 7.5 mM; dextrose 13.6 mM) at a flow rate of […], and the Hamilton microinjection pump was used for continuous perfusion. After stopping isoflurane inhalation, the rats were allowed to wake up naturally on the homoeothermic blanket. The awake rats were placed in a device that allowed them to move freely. Animals were allowed to recover for an additional 24 h.
All microdialysate concentrations (C m) from the hippocampal ECF and lateral ventricle CSF were converted to the unbound drug concentration (C u) at the target site using the following formula: C u = C m/R dial.
A total of 32 rats were randomly divided into the following groups: • Control group, N = 12: vehicle solution + LVFX (50 mg/kg). • TAR group, N = 5: Tariquidar (8 mg/kg) + LVFX (50 mg/kg). • Ko143 group, N = 5: Ko143 (15 mg/kg) + LVFX (50 mg/kg). • MK571 group, N = 5: MK571 (20 mg/kg) + LVFX (50 mg/kg). • PRO group, N = 5: Probenecid (50 mg/kg) + LVFX (50 mg/kg).
Levofloxacin was freshly dissolved in isotonic saline and administered via tail vein injection. Thirty minutes before LVFX administration, the intervention drugs of each group were injected intraperitoneally. To reduce the possible effect of solvents on BBB or BCSFB permeability of LVFX, we prioritized water as the solvent. However, Tariquidar and Ko143 are insoluble in water, and a cosolvent must be used to prepare agents that animals can tolerate. According to the different physicochemical properties of these four inhibitors, the preparation of each transporter inhibitor solution in this experiment was as follows. • P‐glycoprotein (P‐gp) inhibitor Tariquidar[22]: Tariquidar was freshly dissolved in DMSO to 8 mg/ml and then diluted to 4 mg/ml with a solution containing 10% Tween‐80, 25% PEG300, and 65% sterile water. • Breast cancer resistance protein (BCRP) inhibitor Ko143[23]: Ko143 was freshly dissolved in DMSO to 15 mg/ml and then diluted to 7.5 mg/ml with a solution containing 10% Tween‐80, 25% PEG300, and 65% sterile water. • Multidrug resistance‐associated proteins (MRPs) inhibitor MK571[24]: MK571 sodium salt hydrate was dissolved in 1.25% (w/v) aq sodium hydrogen carbonate (NaHCO3) solution to obtain a concentration of 10 mg/ml. • Organic anion transporters (OATs) inhibitor probenecid[25]: Probenecid was dissolved in NaOH (pH = 9.0–9.2) alkalized physiological saline to obtain a concentration of 25 mg/ml.
The pipelines where the blood and brain probes were installed were perfused at the speed of 2 μl/min with ACD solution and ACSF, respectively. Two brain probes were inserted into guide cannulas of the target site and allowed to equilibrate for 1 h. Subsequently, the rats were treated according to their corresponding groups in the device where they could move freely. Microdialyses samples were collected every 15 min using a fraction collector (EFC‐96, Eicom Co.) for 3 h and stored at 4°C until analysis. Finally, rats were anesthetized and decapitated, and their brain was harvested.

[3] = blood, PRO group (probenecid 50 mg/kg) vs control group
[4] = CSF (lateral ventricle microdialysate, unbound), 30 min before LVFX, CSF
[5] = CSF (lateral ventricle microdialysate, unbound), CSF
[6] = brain ECF (hippocampal microdialysate, unbound), 30 min before LVFX, brain ECF

- stability under storage conditions employed ([1]; QC samples, room temp 6 h, 4°C, freeze–thaw 3 cycles): stable
- maximum deviation in stability test of QC samples ([1]; all storage conditions (Table 2)): 4.71%
- Calculated concentration (mean ± SD) ([1]; freeze–thaw (3 cycles), nominal concentration 0.3 μg/ml): 0.289 ± 0.008 µg/mL
- Calculated concentration (mean ± SD) ([1]; freeze–thaw (3 cycles), nominal concentration 3 μg/ml): 2.960 ± 0.140 µg/mL
- Calculated concentration (mean ± SD) ([1]; freeze–thaw (3 cycles), nominal concentration 30 μg/ml): 29.959 ± 0.417 µg/mL
- Calculated concentration (mean ± SD) ([1]; low temperature (4°C) 12 h, nominal concentration 0.3 μg/ml): 0.294 ± 0.012 µg/mL
- Calculated concentration (mean ± SD) ([1]; low temperature (4°C) 12 h, nominal concentration 3 μg/ml): 3.055 ± 0.105 µg/mL
- Calculated concentration (mean ± SD) ([1]; low temperature (4°C) 12 h, nominal concentration 30 μg/ml): 29.844 ± 0.102 µg/mL
- Calculated concentration (mean ± SD) ([1]; short term (room temp) 6 h, nominal concentration 0.3 μg/ml): 0.293 ± 0.011 µg/mL
- Calculated concentration (mean ± SD) ([1]; short term (room temp) 6 h, nominal concentration 3 μg/ml): 3.098 ± 0.056 µg/mL
- Calculated concentration (mean ± SD) ([1]; short term (room temp) 6 h, nominal concentration 30 μg/ml): 30.608 ± 0.405 µg/mL
- AUC0–180 higher than control group [2, 3]: 128.6%
- AUC0–∞ higher than control group [2, 3]: 143.0%
- C max greater than control group [2, 3]: 71.2%
- MRT longer than control group [2, 3]: 1.29 times
- t 1/2 longer than control group [2, 3]: 1.28 times
- MRT [2, 4]: 1.47 h
- half-life [2, 4]: 0.959 ± 0.126 h
- Tmax [2, 5]: 0.25 h
- AUC(0-inf) [2, 5]: 9510 ng·h/mL
- Cmax [2, 5]: 6800 ± 240 ng/mL
- AUC(0-t) [2, 5]: 8330 ng·h/mL
- Kp ([2]; CSF / blood (unbound, microdialysate), 30 min before LVFX, AUCu,CSF/AUCu,blood, read-out: K p,uu,CSF): 0.359 ± 0.008
- Tmax [2, 6]: 0.25 h
- AUC(0-inf) [2, 6]: 9220 ng·h/mL
- Cmax [2, 6]: 5850 ± 180 ng/mL
- half-life [2, 6]: 1.12 ± 0.28 h
- AUC(0-t) [2, 6]: 7830 ng·h/mL
- Kp ([2]; brain ECF / blood, 30 min before LVFX, AUCu,ECF/AUCu,blood, read-out: K p,uu,ECF): 0.337 ± 0.012
- Tmax ([2]; 30 min before LVFX, blood): 0.25 h
- AUC(0-inf) ([2]; 30 min before LVFX, blood): 27000 ng·h/mL
- Cmax ([2]; 30 min before LVFX, blood): 17500 ± 600 ng/mL
- MRT ([2]; 30 min before LVFX, blood): 1.58 h
- half-life ([2]; 30 min before LVFX, blood): 1.05 ± 0.16 h
- AUC(0-t) ([2]; 30 min before LVFX, blood): 23200 ng·h/mL
- MRT ([2]; 30 min before LVFX, brain ECF): 1.61 h
Structure (SMILES): C[C@H]1COc2c(N3CCN(C)CC3)c(F)cc3c(=O)c(C(=O)O)cn1c23 [LVFX, Levofloxacin]
